From patent US20030225081A1, “Pyridazinones and triazinones and medicinal use thereof” (priority 2000, published 2003)

Each compound was assayed on AMPA receptor (assay: Suppressing action to calcium influx into nerve cells induced by AMPA). Conditions: Fura2-AM, stimulation with 2 μM AMPA, primary culture of rat embryo cerebral cortex nerve cells, 1 μM MK-801.
Assay type: cell-based
From the text: Suppressing Action to Calcium Influx into Nerve Cells Induced by AMPA
The suppressing action of the compounds of the present invention to calcium influx into nerve cells induced by AMPA was investigated using the primary culture system of nerve cells of cerebral cortex of embryo of rat.
Cerebral cortex was cut out from the brain of rat of gestational 18 days and treated with trypsin and DNase to disperse the cells. The cells were flown by MEM containing 10% of serum, sown in a culture bottle and astrocytes were proliferated. The astrocytes were re-dispersed by trypsin and sown in a 96-well plate. After incubation for one week, it was confirmed that the astrocytes covered all over the bottom and then the nerve cells of cerebral cortex which was dispersed by the above method were sown thereupon. After incubation for 24 hours, the medium was changed, the incubation was carried out for one week and, after that, the medium was changed to that containing 1 μM of MK-801. Nerve cells which were incubated for not shorter than 8 to 10 days were used.
Calcium influx into the cells was measured using Fura2-AM which was a calcium-sensitive fluorescent dye. It was treated in a medium containing Fura2-AM for 1 hour, incorporated into the cells, exchanged to a Tyrode solution containing 1 μM MK-801 and stimulation was carried out using 2 μM AMPA. Change in the amount of calcium flown into the cells were measured as the change in the fluorescent intensity at the exciting wave length of 340/380 nm. […] As the control compound, GYKI52466 (Le Peillet, et al., Brain Res., 571, 115, 1992) was used.

SMILES | IC50 [nM]
N#Cc1ccccc1-n1nc(-c2ccccn2)cc(-c2ccccc2O)c1=O [Example 42, 2-(2-Cyanophenyl)-4-(2-hydroxyphenyl)-6-(2-pyridyl)-3 (2H)-pyridazinone] | 100
N#Cc1ccccc1-n1nc(-c2ccccn2)cc(-c2ccccc2)c1=O [Example 43, 2-(2-Cyanophenyl)-4-phenyl-6-(2-pyridyl)-3 (2H)-pyridazinone] | 100
COc1ccc(Br)cc1-c1cc(-c2ccccn2)nn(-c2ccccc2C#N)c1=O [Example 44, 2-(2-Cyanophenyl)-4-(3-bromo-6-methoxyphenyl)-6-(2-pyridyl)-3 (2H)-pyridazinone] | 200
N#Cc1ccccc1-c1cc(-c2ccccn2)nn(-c2ccccc2C#N)c1=O [Example 46, 2-(2-Cyanophenyl)-4-(2-cyanophenyl)-6-(2-pyridyl)-3 (2H)-pyridazinone] | 300
N#Cc1ccccc1-n1nc(-c2ccccn2)cc(-c2ccccc2Br)c1=O [Example 47, 4-(2-Bromophenyl)-2-(2-cyanophenyl)-6-(2-pyridyl)-3 (2H)-pyridazinone] | 200
N#Cc1ccccc1N1N=C2c3cc(F)ccc3OCC2C(c2ccccc2)C1=O (stereo not shown) [Example 48, 2-(2-Cyanophenyl)-9-fluoro-4-phenyl-2,3,4,4a-tetrahydro-5H-(1)benzopyrano[4,3-c]pyridazin-3-one] | 100
N#Cc1ccccc1N1N=C2c3ccccc3OCC2C(c2cccnc2)C1=O (stereo not shown) [Example 49, 2-(2-Cyanophenyl)-4-(3-pyridyl)-2,3,4,4a-tetrahydro-5H-(1) benzopyrano[4,3-c]pyridazin-3-one] | 70
O=C1C(c2cccnc2)C2COc3ccccc3C2=NN1c1ccccc1Br (stereo not shown) [Example 50, 2-(2-Bromophenyl)-4-(3-pyridyl)-2,3,4,4a-tetrahydro-5H-(1)benzopyrano[4,3-c]pyridazin-3-one] | 100
O=c1c(-c2ccccc2O)cc(-c2ccccn2)nn1-c1ccccc1Br [Example 51, 2-(2-Bromophenyl)-4-(2-hydroxyphenyl)-6-(2-pyridyl)-3 (2H)-pyridazinone] | 800
COc1cccc(-c2cc(-c3ccccn3)nn(-c3ccccc3Br)c2=O)c1 [Example 52, 2-(2-Bromophenyl)-4-(3-methoxyphenyl)-6-(2-pyridyl)-3 (2H)-pyridazinone] | 200
N#Cc1ccccc1-n1nc2c(c(-c3ccccc3)c1=O)C(O)Oc1ccc(F)cc1-2 (stereo not shown) [Example 53, 2-(2-Cyanophenyl)-9-fluoro-5-hydroxy-4-phenyl-2,3-dihydro-5H-(1)benzopyrano[4,3-c]pyridazin-3-one] | 500
N#Cc1ccccc1-n1nc2c(c(-c3ccccc3)c1=O)COc1ccc(F)cc1-2 [Example 54, 2-(2-Cyanophenyl)-9-fluoro-4-phenyl-2,3-dihydro-5H-(1)benzopyrano[4,3-c]pyridazin-3-one] | 100
O=c1c(-c2ccccc2OS(=O)(=O)C(F)(F)F)cc(-c2ccccn2)nn1-c1ccccc1 [Example 55, 2-Phenyl-6-(2-pyridyl)-4-(2-trifluoromethylsulfonyloxyphenyl)-3 (2H)-pyridazinone] | 800
O=c1c(-c2ccccc2)cc(-c2ccccn2)nn1-c1ccccc1Br [Example 56, 2-(2-Bromophenyl)-4-phenyl-6-(2-pyridyl)-3 (2H)-pyridazinone] | 200
O=c1c(-c2cccnc2)c2c(nn1-c1ccccc1Br)-c1ccccc1OC2 [Example 57, 2-(2-Bromophenyl)-4-(3-pyridyl)-2,3-dihydro-5H-(1)benzopyrano[4,3-c]pyridazine-3-one] | 200
O=c1c(-c2cccnc2)c2c(nn1-c1ccccc1I)-c1ccccc1OC2 [Example 58, 2-(2-Iodophenyl)-4-(3-pyridyl)-2,3-dihydro-5H-(1)benzopyrano[4,3-c]pyridazin-3-one] | 400
O=c1c(-c2ccccc2Br)cc(-c2ccccn2)nn1-c1ccccc1 [Example 60, 4-(2-Bromophenyl)-2-phenyl-6-(2-pyridyl)-3 (2H)-pyridazinone] | 200
O=c1c(-c2cccnc2)cc(-c2ccccn2)nn1-c1ccccc1Br [Example 61, 2-(2-Bromophenyl)-4-(3-pyridyl)-6-(2-pyridyl)-3 (2H)-pyridazinone] | 300
O=C(NCCN1CCOCC1)c1cc(-c2ccccc2)nn(-c2ccccc2Cl)c1=O [Example 62, 2-(2-Chlorophenyl)-4-(4-morpholinoethylaminocarbonyl)-6-phenyl-3 (2H)-pyridazinone] | 4000
O=c1c(-c2cccnc2)cc(-c2ccccn2)nn1-c1ccccc1[N+](=O)[O-] [Example 63, 2-(2-Nitrophenyl)-4-(3-pyridyl)-6-(2-pyridyl)-3 (2H)-pyridazinone] | 300

SMILES | IC50 [nM]
Cc1cccc(-n2nc(-c3ccccn3)cc(-c3cccnc3)c2=O)c1 [Example 64, 2-(3-Tolyl)-4-(3-pyridyl)-6-(2-pyridyl)-3 (2H)-pyridazinone] | 700
N#Cc1ccccc1-n1nc(-c2ncccn2)cc(-c2ccccc2)c1=O [Example 70, 2-(2-Cyanophenyl)-4-phenyl-6-(2-pyrimidinyl)-3 (2H)-pyridazinone] | 800
O=c1c(-c2cccnc2)cc(-c2ccccn2)nn1-c1ccsc1 [Example 73, 2-(Thiophen-3-yl)-4-(3-pyridyl)-6-(2-pyridyl)-3 (2H)-pyridazinone] | 1100
O=c1c(-c2ccccc2)cc(-c2ccccn2)nn1-c1cccnc1 [Example 74, 2-(3-Pyridyl)-4-phenyl-6-(2-pyridyl)-3 (2H)-pyridazinone] | 900
O=c1c(-c2ccccc2)cc(-c2ncccn2)nn1-c1cccnc1 [Example 75, 2-(3-Pyridyl)-4-phenyl-6-(2-pyrimidinyl)-3 (2H)-pyridazinone] | 700
COc1ccccc1N1N=C(c2ccccn2)CC(c2cccnc2)C1=O (stereo not shown) [Example 76, 2-(2-Methoxyphenyl)-4-(3-pyridyl)-6-(2-pyridyl)-4,5-dihydro-3 (2H)-pyridazinone] | 6200
O=c1c(-c2ccccc2)cc(-c2ccccn2)nn1-c1ccc[n+]([O-])c1 [Example 79, 2-(3-Pyridin-1-oxide)-4-phenyl-6-(2-pyridyl)-3 (2H)-pyridazinone] | 7200
N#Cc1ccc(-n2nc(-c3ccccn3)cc(-c3ccccc3)c2=O)cn1 [Example 80A, 2-(2-Cyanopyridin-5-yl)-4-phenyl-6-(2-pyridyl)-3 (2H)-pyridazinone] | 7100
N#Cc1ncccc1-n1nc(-c2ccccn2)cc(-c2ccccc2)c1=O [Example 80B, 2-(2-Cyanopyridin-3-yl)-4-phenyl-6-(2-pyridyl)-3 (2H)-pyridazinone] | 200
N#Cc1ncccc1-n1nc(-c2ncccn2)cc(-c2ccccc2)c1=O [Example 81B, 2-(2-Cyanopyridin-3-yl)-4-phenyl-6-(2-pyrimidinyl)-3 (2H)-pyridazinone] | 700
N#Cc1ccccc1-n1nc(-c2cnccn2)cc(-c2ccccc2)c1=O [Example 82, 2-(2-Cyanophenyl)-4-phenyl-6-(2-pyrazinyl)-3 (2H)-pyridazinone] | 1200
N#Cc1ccccc1-n1nc(-c2nccs2)cc(-c2ccccc2)c1=O [Example 83, 2-(2-Cyanophenyl)-4-phenyl-6-(thiazol-2-yl)-3 (2H)-pyridazinone] | 600
COc1ccccc1N1CC(c2ccccn2)=NN(c2ccccc2Br)C1=O [Example 85, 2-(2-Bromophenyl)-4-(2-methoxyphenyl)-6-(2-pyridyl)-4,5-dihydro-1,2,4-triazin-3 (2H)-one] | 200
O=C1N(c2ccccc2O)CC(c2ccccn2)=NN1c1ccccc1Br [Example 86, 2-(2-Bromophenyl)-4-(2-hydroxyphenyl)-6-(2-pyridyl)-4,5-dihydro-1,2,4-triazin-3 (2H)-one] | 100
COc1ccccc1N1CC(c2ccccn2)=NN(c2ccccc2C#N)C1=O [Example 87, 2-(2-Cyanophenyl)-4-(2-methoxyphenyl)-6-(2-pyridyl)-4,5-dihydro-1,2,4-triazin-3 (2H)-one] | 50
COc1ccccc1C1=NN(c2ccccc2Br)C(=O)N(c2ccccc2)C1 [Example 89, 2-(2-Bromophenyl)-6-(2-methoxyphenyl)-4-phenyl-4,5-dihydro-1,2,4-triazin-3 (2H)-one] | 5000
O=C1N(c2ccccc2)CC(c2ccccc2O)=NN1c1ccccc1Br [Example 90, 2-(2-Bromophenyl)-6-(2-hydroxyphenyl)-4-phenyl-4,5-dihydro-1,2,4-triazin-3 (2H)-one] | 900
CN(C)CCOc1ccccc1C1=NN(c2ccccc2Br)C(=O)N(c2ccccc2)C1 [Example 91, 2-(2-Bromophenyl)-6-(2-dimethylaminoethoxyphenyl)-4-phenyl-4,5-dihydro-1,2,4-triazin-3 (2H)-one] | 300
COc1ccccc1C1=NN(c2ccccc2Br)C(=O)N(c2ccccn2)C1 [Example 92, 2-(2-Bromophenyl)-6-(2-methoxyphenyl)-4-(2-pyridyl)-4,5-dihydro-1,2,4-triazin-3 (2H)-one] | 100
N#Cc1ccccc1N1N=C(c2ccccc2O)CN(c2ccccc2)C1=O [Example 93, 2-(2-Cyanophenyl)-6-(2-hydroxyphenyl)-4-phenyl-4,5-dihydro-1,2,4-triazin-3 (2H)-one] | 30
